In ChEMBL document CHEMBL5335865, “Macrocyclic Oxindole Peptide Epoxyketones-A Comparative Study of Macrocyclic Inhibitors of the 20S Proteasome” (ACS Med Chem Lett, 2024):
The source made the active and inactive calls. No cut-off for these calls is given here.

Columns and labels:
Chymotrypsin = Chymotrypsin (UniProt Q99895+P17538+P40313+Q6GPI1); test: Inhibition of chymotrypsin (unknown origin) using Suc-LLVY-AMC as fluorogenic substrate at 130 uM measured every 20 seconds for 10 mins by fluorescence based assay; format: protein assay; conditions: Homo sapiens
Sequence of Chymotrypsin (P17538 whole entry, looked up): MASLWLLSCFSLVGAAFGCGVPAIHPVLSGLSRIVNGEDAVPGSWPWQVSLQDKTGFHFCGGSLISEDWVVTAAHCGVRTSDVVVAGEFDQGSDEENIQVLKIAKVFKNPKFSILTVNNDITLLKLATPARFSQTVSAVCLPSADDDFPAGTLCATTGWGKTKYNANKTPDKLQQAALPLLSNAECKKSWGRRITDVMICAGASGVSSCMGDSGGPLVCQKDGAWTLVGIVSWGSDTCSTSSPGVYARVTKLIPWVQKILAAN
Sequence of Chymotrypsin (P40313 whole entry, looked up): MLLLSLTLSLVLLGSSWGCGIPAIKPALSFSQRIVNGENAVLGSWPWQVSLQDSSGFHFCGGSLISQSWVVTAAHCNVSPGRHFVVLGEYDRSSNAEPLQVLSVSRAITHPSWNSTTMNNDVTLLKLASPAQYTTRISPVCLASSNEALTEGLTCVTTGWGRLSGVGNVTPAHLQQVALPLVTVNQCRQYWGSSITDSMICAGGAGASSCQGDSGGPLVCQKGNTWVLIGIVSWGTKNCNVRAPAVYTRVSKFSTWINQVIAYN
Sequence of Chymotrypsin (Q6GPI1 whole entry, looked up): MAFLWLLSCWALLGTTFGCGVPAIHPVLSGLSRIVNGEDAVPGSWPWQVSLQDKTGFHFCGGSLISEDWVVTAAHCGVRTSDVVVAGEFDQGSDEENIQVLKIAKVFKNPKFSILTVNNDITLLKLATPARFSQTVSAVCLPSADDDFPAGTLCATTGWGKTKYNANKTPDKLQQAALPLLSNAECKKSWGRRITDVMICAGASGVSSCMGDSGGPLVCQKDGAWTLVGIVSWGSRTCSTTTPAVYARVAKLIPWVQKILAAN
Sequence of Chymotrypsin (Q99895 whole entry, looked up): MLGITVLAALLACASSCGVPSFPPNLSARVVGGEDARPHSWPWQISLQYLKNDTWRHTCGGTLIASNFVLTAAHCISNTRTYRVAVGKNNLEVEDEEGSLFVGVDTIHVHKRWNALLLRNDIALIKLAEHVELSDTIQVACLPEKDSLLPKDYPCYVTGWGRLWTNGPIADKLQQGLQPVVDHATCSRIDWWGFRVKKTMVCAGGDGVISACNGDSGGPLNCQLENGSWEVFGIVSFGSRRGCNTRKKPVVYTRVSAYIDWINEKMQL

[1] = target: T1, 20S proteasome (Homo sapiens) (UniProt P49721+P20618+P28074+P28062+P28065+P28072+P25786+P25787+P25788+P25789+P28066+P60900+O14818+Q8TAA3+P40306+A5LHX3+P49720+P28070+Q99436); test: Inhibition of human 20S proteasome trypsin-like activity using Ac-RLR-AMC as a fluorogenic substrate at 130 uM measured every 20 seconds for 10 mins by fluorescence based assay; format: protein-complex assay
[2] = target: Cathepsin B (Homo sapiens) (UniProt P07858); test: Inhibition of human liver cathepsin B using Cbz-Arg-Arg-AMC as fluorogenic substrate at 130 uM measured every 20 seconds for 10 mins by fluorescence based assay
[3] = target: Calpain-2 catalytic subunit (Homo sapiens) (UniProt P17655); test: Inhibition of m-calpain (unknown origin) using Suc-LLVY-AMC as fluorogenic substrate at 130 uM measured every 20 seconds for 10 mins by fluorescence based assay
Sequence of Calpain-2 catalytic subunit (Homo sapiens) (P17655 whole entry, looked up): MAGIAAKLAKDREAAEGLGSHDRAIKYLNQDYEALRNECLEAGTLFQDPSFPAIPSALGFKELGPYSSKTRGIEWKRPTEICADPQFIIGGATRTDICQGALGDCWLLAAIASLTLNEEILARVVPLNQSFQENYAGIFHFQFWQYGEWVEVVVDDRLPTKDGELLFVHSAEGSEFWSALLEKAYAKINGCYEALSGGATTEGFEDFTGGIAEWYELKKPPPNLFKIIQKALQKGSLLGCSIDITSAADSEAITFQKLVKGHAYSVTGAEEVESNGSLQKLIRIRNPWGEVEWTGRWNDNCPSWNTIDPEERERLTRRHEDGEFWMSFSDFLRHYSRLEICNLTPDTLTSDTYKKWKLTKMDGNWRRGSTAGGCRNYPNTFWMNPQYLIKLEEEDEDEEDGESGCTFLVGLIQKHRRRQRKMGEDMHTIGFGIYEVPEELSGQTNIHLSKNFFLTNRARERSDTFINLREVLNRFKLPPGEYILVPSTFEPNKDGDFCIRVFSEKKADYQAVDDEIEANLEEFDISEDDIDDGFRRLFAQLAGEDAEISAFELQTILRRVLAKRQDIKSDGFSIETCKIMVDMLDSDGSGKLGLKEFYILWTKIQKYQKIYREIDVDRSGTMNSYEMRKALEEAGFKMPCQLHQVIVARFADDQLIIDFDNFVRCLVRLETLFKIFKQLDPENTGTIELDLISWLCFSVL

[4] = target: T1, 20S proteasome (Homo sapiens); test: Inhibition of human 20S proteasome PGPH-like activity using Cbz-LLE-AMC as a fluorogenic substrate at 130 uM measured every 20 seconds for 10 mins by fluorescence based assay; format: protein-complex assay

inhibition (Chymotrypsin)	inhibition [1]	inhibition [2]	inhibition [3]	inhibition [4]	SMILES
inactive	inactive	–	–	–	CC(C)C[C@@H](C=O)NC(=O)[C@@H]1Cc2ccc(cc2)Oc2cc(ccc2[N+](=O)[O-])C[C@H](NC(=O)OCc2ccccc2)C(=O)N[C@@H](CC(C)C)C(=O)N1
inactive	inactive	inactive	inactive	–	CC(=O)N[C@H]1Cc2ccc([N+](=O)[O-])c(c2)Oc2ccc3c(c2)C(C[C@@H](C(=O)N[C@@H](CC(C)C)C(=O)[C@@]2(C)CO2)NC(=O)[C@H](CC(C)C)NC1=O)C(=O)N3 (some centres undefined)
inactive	inactive	inactive	inactive	–	CC(C)C[C@H](NC(=O)[C@H](CCc1ccccc1)NC(=O)CN1CCOCC1)C(=O)N[C@@H](Cc1ccccc1)C(=O)N[C@@H](CC(C)C)C(=O)[C@@]1(C)CO1
inactive	inactive	inactive	inactive	inactive	CC(=O)N[C@H]1Cc2ccc([N+](=O)[O-])c(c2)Oc2ccc(cc2)C[C@@H](C(=O)N[C@@H](CC(C)C)C(=O)[C@@]2(C)CO2)NC(=O)[C@H](CC(C)C)NC1=O
inactive	–	inactive	inactive	inactive	CC(=O)N[C@H]1Cc2ccc([N+](=O)[O-])c(c2)Oc2ccc3c(c2)C(C[C@@H](C(=O)N[C@@H](CC(C)C)C(N)=O)NC(=O)[C@H](CC(C)C)NC1=O)C(=O)N3 (some centres undefined)
inactive	inactive	inactive	inactive	inactive	CC(=O)N[C@H]1Cc2ccc([N+](=O)[O-])c(c2)Oc2ccc(cc2)CC[C@@H](C(=O)N[C@@H](CC(C)C)C(=O)[C@@]2(C)CO2)NC(=O)[C@H](CC(C)C)NC1=O

SMILES	inhibition (Chymotrypsin)	inhibition [1]	inhibition [2]	inhibition [3]	inhibition [4]
CC(=O)N[C@@H](Cc1ccc([N+](=O)[O-])c(F)c1)C(=O)N[C@@H](CC(C)C)C(=O)N[C@@H](CC1C(=O)Nc2ccc(O)cc21)C(=O)N[C@@H](CC(C)C)C(=O)[C@@]1(C)CO1 (some centres undefined)	inactive	inactive	inactive	inactive	inactive
